Experimental findings from paper PMC11855827, “High-Throughput Screening of Five Compound Libraries for Anthelmintic Activity and Toxicity Leads to the Discovery of Two Flavonoid Compounds” (International Journal of Molecular Sciences, 2025) are described below.

Read-outs that look alike come from different tables or passages of the source.

This test concerns C. elegans. The test is described as follows: microbe, parasite or virus in culture. Conditions: Caenorhabditis elegans.
Setting [1] is: 0 h, read-out: Percentage of motility inhibition 0 h, Table S2, C. elegans SS assay, 110 μM, 0 h, averages of 4 data points.
Where [2] appears, read: 24 h, read-out: Percentage of motility inhibition 24 h, Table S2, C. elegans SS assay, 110 μM, 24 h, averages of 4 data points.
The mark [3] stands for this setting: 0 h, read-out: Percentage of motility inhibition 0 h.
Setting [4] is: 24 h, read-out: Percentage of motility inhibition 24 h.

Broadly, the inhibition is the drop in the measured response relative to a control, in per cent.

As for `CC1=C(/C=C/C(C)=C/C=C/C(C)=C/C(=O)O)C(C)(C)CCC1` [Retinoic acid], the inhibition at 110 µM by setting is: under setting [1], 18%; under setting [2], 40%.
In the same order, the values of `CC(=O)O[C@H]1CC(=O)OC(C)(C)[C@@H]2CC(=O)[C@]3(C)[C@H](CC[C@@]4(C)[C@H](c5ccoc5)OC(=O)[C@H]5O[C@]543)[C@@]12C` [Nomilin] are 0% and 22%.
On the same counts, the results for `C[C@@H]1O[C@@H](O[C@H]2[C@H](Oc3cc(O)c4c(=O)cc(-c5ccc(O)c(O)c5)oc4c3)O[C@H](CO)[C@@H](O)[C@@H]2O)[C@H](O)[C@H](O)[C@H]1O` [Lonicerin] are 2% and 2%.
In the same order, the values of `C=C1C(=O)[C@]23C[C@H]1C[C@@H](O)[C@H]2[C@@]12CO[C@@H](O)[C@@H]1C(C)(C)CC[C@@H]2OC3=O` [Nodosin] are 0% and 14%.
Regarding `O=c1cc(-c2ccccc2)oc2cc(O)ccc12` [7‐Hydroxyflavone], the inhibition at 110 µM by setting is: under setting [1], 1%; under setting [2], 0%.
Consider `Cc1ccc(C(C)C)c(O)c1` [Thymol], for which the inhibition at 110 µM is, setting by setting: under setting [1], 54%; under setting [2], 28%.
In the same order, the values of `Cc1ccnc2c1NC(=O)c1cccnc1N2C1CC1` [Nevirapine] are 10% and 6%.
On the same counts, the results for `CCc1nn(CCO)c(CC)c1Oc1cc(C#N)cc(C#N)c1` [Lersivirine] are 18% and 8%.
For `CC(C)=CC/C=C(\C)[C@H]1CC[C@]2(C)[C@@H]1[C@H](O)C[C@@H]1[C@@]3(C)CC[C@H](O[C@@H]4O[C@H](CO)[C@@H](O)[C@H](O)[C@H]4O[C@@H]4O[C@H](CO)[C@@H](O)[C@H](O)[C@H]4O)C(C)(C)[C@@H]3CC[C@]12C` [Ginsenoside Rg5], the inhibition at 110 µM was 0% under setting [1] and 2% under setting [2].
In the same order, the values of `CCN1C[C@]2(COC)CC[C@H](OC)[C@]34C1[C@H](C[C@H]23)[C@@]1(O)C[C@H](OC)[C@H]2C[C@@H]4[C@@H]1[C@H]2O` [Talatisamine] are 6% and 0%.
In the same order, the values of `CC(=O)O[C@@H]1C(=O)C2=C(C(=O)C[C@H]3C(C)(C)C(=O)CC[C@]23C)[C@]2(C)C(=O)C[C@H]([C@H](C)CC(=O)CC(C)C(=O)O)[C@@]12C` (stereo partly drawn) [Ganoderic acid F] are 14% and 2%.
On the same counts, the results for `COc1cc2c(cc1OC)[C@H](C)NCC2` [Salsolidine] are 0% and 0%.
For `CC(=O)OCC1=C[C@@H]2OC(=O)C3=CO[C@@H](O[C@@H]4O[C@H](CO)[C@@H](O)[C@H](O)[C@H]4O)[C@H]1[C@@H]32` [Asperuloside], the inhibition at 110 µM worked out at 0% under setting [1] and 5% under setting [2].
On the same counts, the results for `O=c1c(O)c(-c2ccc(O)c(O)c2)oc2cc(O[C@@H]3O[C@H](CO)[C@@H](O)[C@H](O)[C@H]3O)cc(O)c12` [Quercimeritrin] are 0% and 3%.
With `CS(=O)(=O)c1ccc([C@@H](O)[C@@H](CF)NC(=O)C(Cl)Cl)cc1` [Florfenicol], the inhibition at 110 µM reads like this: under setting [1], 29%; under setting [2], 9%.
Consider `O=c1[nH]c2ccccc2o1` [2‐Benzoxazolinone], for which the inhibition at 110 µM runs as follows: under setting [1], 24%; under setting [2], 6%.
On the same counts, the results for `CN1Cc2c(ccc3c2OCO3)[C@@H]2[C@H]1c1cc3c(cc1C[C@@H]2O)OCO3` [Chelidonine] are 0% and 0%.
In the case of `CC(C)=CCC[C@](C)(O)[C@H]1CC[C@]2(C)[C@@H]1[C@H](O)C[C@@H]1[C@@]3(C)CC[C@H](O)C(C)(C)[C@@H]3[C@@H](O[C@@H]3O[C@H](CO)[C@@H](O)[C@H](O)[C@H]3O)C[C@]12C` [Ginsenoside Rh1], the inhibition at 110 µM worked out at 0% under setting [1] and 9% under setting [2].
In the same order, the values of `OC(Cn1cncn1)(Cn1cncn1)c1ccc(F)cc1F` [Fluconazole] are 7% and 12%.
On the same counts, the results for `CC1=C(C(=O)O)N2C(=O)[C@@H](NC(=O)[C@H](N)c3ccccc3)[C@H]2SC1` [Cephalexin] are 21% and 13%.
`CC1=C2C[C@H]3[C@@H](CC=C4C[C@@H](O)CC[C@@]43C)[C@@H]2CC[C@]12O[C@@H]1C[C@H](C)CN[C@H]1[C@H]2C` [Cyclopamine]: the inhibition at 110 µM worked out at 0% under setting [3] and 14% under setting [4].
As to `C[C@@H](c1ncncc1F)[C@](O)(Cn1cncn1)c1ccc(F)cc1F` [Voriconazole], the inhibition at 110 µM runs as follows: under setting [1], 19%; under setting [2], 0%.
In the same order, the values of `CC(C)[C@]12CC(=O)[C@H](C)[C@H]1C2` [α-Thujone] are 9% and 20%.
With `CCCCCCCCC(=O)NCc1ccc(O)c(OC)c1` [Nonivamide], the inhibition at 110 µM under setting [2] was found to be 0%.
With `O=C1c2c(O)cc(O)cc2OC(c2ccc(O)c(O)c2)C1O` (stereo not drawn) [Taxifolin], the inhibition at 110 µM under setting [1] turned out to be 10% and the inhibition at 110 µM under setting [2] was 14%.
On the same counts, the results for `C=C[C@H]1CN2CC[C@@]3(C(=O)Nc4ccccc43)[C@@H]2C[C@@H]1/C(=C\OC)C(=O)OC` [Isocorynoxeine] are 0% and 0%.
In the same order, the values of `CC(=O)O[C@@H]1C[C@]23C4=CC[C@@]5(C)[C@H](C(=O)O)[C@@](C)([C@H](C)C(C)C)CC[C@]5(C)[C@H]4CC[C@H]2[C@@](C)(COC3O)[C@H]1O[C@@H]1O[C@H](CO)[C@@H](O)[C@H](O)[C@H]1O` (stereo partly drawn) [Enfumafungin] are 0% and 60%.
On the same counts, the results for `COc1c(O)cc2c(c1O)[C@@H]1O[C@H](CO)[C@@H](O)[C@H](O)[C@H]1OC2=O` [Bergenin] are 21% and 10%.
On to `C/C=C(/C)C(=O)O[C@H]1[C@@H]2[C@H](C)C(=O)O[C@@H]2C[C@@H](C)[C@@H]2C=CC(=O)[C@]21C` [Brevilin A], for which the inhibition at 110 µM by setting is: under setting [3], 0%; under setting [4], 0%.
In the case of `C/C=C(\C)C(=O)N[C@@H](c1ccccc1)[C@@H](O)C(=O)O[C@H]1C[C@@]2(O)[C@@H](OC(=O)c3ccccc3)[C@@H]3[C@]4(OC(C)=O)CO[C@@H]4C[C@H](O)[C@@]3(C)C(=O)[C@H](OC(C)=O)C(=C1C)C2(C)C` [Cephalomannine], the inhibition at 110 µM runs as follows: under setting [1], 31%; under setting [2], 34%.
As to `O=c1c(O[C@@H]2OC[C@@H](O)[C@H](O)[C@H]2O)c(-c2ccc(O)c(O)c2)oc2cc(O)cc(O)c12` [Reynoutrin], the inhibition at 110 µM by setting is: under setting [1], 0%; under setting [2], 7%.
Turning to `CC(C)c1nc(CN(C)C(=O)N[C@H](C(=O)N[C@@H](Cc2ccccc2)C[C@H](O)[C@H](Cc2ccccc2)NC(=O)OCc2cncs2)C(C)C)cs1` [Ritonavir], the inhibition at 110 µM under setting [1] is 2% and the inhibition at 110 µM under setting [2] amounted to 0%.
In the same order, the values of `CCn1cc(C(=O)O)c(=O)c2cnc(N3CCCC3)nc21` [Piromidic acid] are 9% and 8%.
In the same order, the values of `OC[C@H]1O[C@@H](Oc2ccc3c(c2)OC[C@H]2c4cc5c(cc4O[C@@H]32)OCO5)[C@H](O)[C@@H](O)[C@@H]1O` [Trifolirhizin] are 11% and 0%.
On the same counts, the results for `COc1ccc2c(c1OC)CN(C)CCc1cc3c(cc1C(=O)C2)OCO3` [Allocryptopine] are 11% and 18%.
On to `O=C1C[C@@H](c2ccc(O)cc2)Oc2cc(O[C@@H]3O[C@H](CO)[C@@H](O)[C@H](O)[C@H]3O)cc(O)c21` [Prunin], for which the inhibition at 110 µM stood at 13% under setting [1] and 2% under setting [2].
On the same counts, the results for `CC[C@@H]1[C@H]2CCCCN3[C@H]2[C@@H](C[C@H]3[C@@H]2C[C@H](C)C(=O)O2)[C@H]2[C@@H]1OC(=O)[C@H]2C` [Neotuberostemonine] are 0% and 9%.
In the same order, the values of `CN1C(=O)CC[C@H]1c1cccnc1` [Cotinine] are 45% and 16%.
As to `O=C(O)c1cccc2nc3ccccc3nc12` [Phenazine‐1‐carboxylic acid], the inhibition at 110 µM reads like this: under setting [1], 0%; under setting [2], 11%.
On the same counts, the results for `Nc1ccc(S(=O)(=O)Nc2ncccn2)cc1` [Sulfadiazine] are 14% and 7%.
As for `N[C@@H](Cc1ccccc1)C(=O)O` [L-Phenylalanine], the inhibition at 110 µM runs as follows: under setting [1], 23%; under setting [2], 21%.
In the same order, the values of `COc1ccc(O)cc1` [Mequinol] are 16% and 11%.
In the same order, the values of `COC(=O)C1=CO[C@@H](O[C@@H]2O[C@H](CO)[C@@H](O)[C@H](O)[C@H]2O)[C@H]2[C@@H]1[C@H](O)C[C@]2(C)O` [Shanzhiside methyl ester] are 32% and 38%.
Turning to `C[C@H](O)C(=O)O` [L-Lactic acid], the inhibition at 110 µM by setting is: under setting [1], 16%; under setting [2], 21%.
In the case of `Cc1cccc(N(C)C(=S)Oc2ccc3ccccc3c2)c1` [Tolnaftate], the inhibition at 110 µM under setting [1] stood at 25% and the inhibition at 110 µM under setting [2] was determined as 26%.
As for `O=Cc1ccc[nH]1` [Pyrrole‐2‐carboxaldehyde], the inhibition at 110 µM under setting [1] amounted to 0% and the inhibition at 110 µM under setting [2] was 6%.
On the same counts, the results for `O=c1ccn([C@@H]2O[C@H](CO)[C@@H](O)[C@H]2O)c(=O)[nH]1` [Uridine] are 0% and 10%.
